Results on four compounds are retold here after ChEMBL document CHEMBL4138294, “Cybastacines A and B: Antibiotic Sesterterpenes from a Nostoc sp. Cyanobacterium” (2018).

A value given as a limit tells only on which side of the number the result lay.

Common to all, as to format: functional
The subject of assay [1] is Mycobacteroides abscessus. Nature of the assay: Antibacterial activity against Mycobacterium abscessus clinical isolate by CLSI M07-A9 protocol based assay.
For the next assay, the system named is Enterococcus faecium. Kind of assay: Antibacterial activity against Enterococcus faecium clinical isolate by CLSI M07-A9 protocol based assay.
The subject of a further assay is Staphylococcus aureus. Kind of assay: Antibacterial activity against Staphylococcus aureus clinical isolate by CLSI M07-A9 protocol based assay.
The next assay deals with Enterococcus faecalis. Kind of assay: Antibacterial activity against Enterococcus faecalis clinical isolate by CLSI M07-A9 protocol based assay.
Assay [2] relates to Staphylococcus epidermidis. Nature of the assay: Antibacterial activity against Staphylococcus epidermidis clinical isolate by CLSI M07-A9 protocol based assay.
The test system of the next assay is Nocardia cyriacigeorgica. Kind of assay: Antibacterial activity against Nocardia cyriacigeorgica clinical isolate by CLSI M07-A9 protocol based assay.
The next assay deals with Streptococcus pyogenes. Kind of assay: Antibacterial activity against Streptococcus pyogenes clinical isolate by CLSI M07-A9 protocol based assay.
The subject of the next assay is Nocardia carnea. Kind of assay: Antibacterial activity against Nocardia carnea clinical isolate by CLSI M07-A9 protocol based assay.
Another assay has as its system Tsukamurella pulmonis. Nature of the assay: Antibacterial activity against Tsukamurella pulmonis clinical isolate by CLSI M07-A9 protocol based assay.

One may read the MIC as the lowest concentration that inhibits growth of the organism. A low value points to greater potency. `CC1(C)CCC[C@]2(C)[C@@H]3C(=CC[C@@H]12)[C@@]1(C)CC[C@@]2(C)NC(=N)NC[C@@H]2[C@@]1(C)C[C@H]3O`: the MIC (in assay [1]; against Enterococcus faecium; in the assay on Staphylococcus aureus; against Enterococcus faecalis; in assay [2]; against Nocardia cyriacigeorgica) was ≤ 4 µg/mL throughout. For the same compound, the results for the MIC against Streptococcus pyogenes, in the assay on Nocardia carnea and in the assay with Tsukamurella pulmonis were ≤ 4 µg/mL, ≤ 4 µg/mL and ≤ 2 µg/mL, respectively.
As for `CN[C@H](CC(C)C)C(=O)N[C@H]1C(=O)N[C@@H](CC(N)=O)C(=O)N[C@H]2C(=O)N[C@H]3C(=O)N[C@H](C(=O)N[C@H](C(=O)O)c4cc(O)cc(O)c4-c4cc3ccc4O)[C@H](O)c3ccc(c(Cl)c3)Oc3cc2cc(c3O[C@@H]2O[C@H](CO)[C@@H](O)[C@H](O)[C@H]2O[C@H]2C[C@](C)(N)[C@H](O)[C@H](C)O2)Oc2ccc(cc2Cl)[C@H]1O` [VANCOMYCIN], the MIC was ≤ 8 µg/mL in the assay on Enterococcus faecium; ≤ 8 µg/mL against Staphylococcus aureus; ≤ 8 µg/mL with Enterococcus faecalis; ≤ 8 µg/mL in assay [2]; ≤ 16 µg/mL against Streptococcus pyogenes.
On to `CC1(C)CCC[C@]2(C)C3=C(CC[C@@H]12)[C@@]1(C)CC[C@@]2(C)NC(=N)NC[C@@H]2[C@@]1(C)C[C@H]3O`, for which the MIC in [1] is ≤ 16 µg/mL; in the assay on Enterococcus faecium, ≤ 32 µg/mL; against Staphylococcus aureus, ≤ 32 µg/mL; against Enterococcus faecalis, ≤ 32 µg/mL; in assay [2], ≤ 32 µg/mL; with Nocardia cyriacigeorgica, ≤ 16 µg/mL. Further, the minimum inhibitory concentration (MIC) in the assay on Streptococcus pyogenes is ≤ 32 µg/mL; with Nocardia carnea it was ≤ 16 µg/mL; in the assay with Tsukamurella pulmonis, ≤ 8 µg/mL.
Turning to `C[C@@H](O)[C@H]1C(=O)N2C(C(=O)O)=C(SCCNC=N)C[C@H]12` [IMIPENEM ANHYDROUS], the MIC (in [1]; against Nocardia cyriacigeorgica; with Nocardia carnea; against Tsukamurella pulmonis) was ≤ 8 µg/mL in each case.
